The term IC50 denotes the concentration at which inhibition is half-maximal.

22 compounds from US9249163B2, “PDE10a inhibitors for the treatment of type II diabetes” (Janssen Pharmaceutica, NV, priority 2013, dated 2016) can be followed below.

SMILES strings stand for the structures. Where a name gives a salt, the structure may show the parent alone.

The target of experiment [1] is Rat recombinant PDE10a (rPDE10a) (Rattus norvegicus (Rat), UniProt Q9QYJ6). Briefly: In vitro assay PDE10a (rat recombinant PDE10a, SPA). Format: biochemical. The note with it: 60 nM cAMP, 60 min at rt, read-out: rPDE10a2 IC50. Here is the method: Rat recombinant PDE10a (rPDE10a) was expressed in Sf9 cells using a recombinant rPDE10a baculovirus construct. Cells were harvested after 48 h of infection and the rPDE10a protein was purified by metal chelate chromatography on Ni-sepharose 6FF. Tested compounds were dissolved and diluted in 100% DMSO to a concentration 100 fold of the final concentration in the assay. Compound dilutions (0.4 μL) were added in 384 well plates to 20 μL of incubation buffer (50 mM Tris pH 7.8, 8.3 mM MgCl2, 1.7 mM EGTA). 10 μL of rPDE10a enzyme in incubation buffer was added and the reaction was started by addition of 10 μL substrate to a final concentration of 60 nM cAMP and 0.008 μCi ^3H-cAMP. The reaction was incubated for 60 min at rt. After incubation, the reaction was stopped with 20 μL of 17.8 mg/mL PDE SPA beads. After sedimentation of the beads during 30 min the radioactivity was measured in a Perkin Elmer Topcount scintillation counter and results were expressed as cpm. For blank values the enzyme was omitted from the reaction and replaced by incubation buffer. Control values were obtained by addition of a final concentration of 1% DMSO instead of compound.

Experiment [2] has as its target Human recombinant PDE10A2 (Homo sapiens (Human), UniProt Q9Y233). Briefly: In vitro hPDE10a (human recombinant PDE10A2, scintillation proximity assay). Format: biochemical. The conditions noted are these: human recombinant PDE10A2, 60 nM cAMP, 60 min at room temperature; read-out: hPDE10a2 IC50. The procedure: Human recombinant PDE10A2 was expressed in Sf9 cells, using a recombinant baculovirus construct containing the full length sequence containing a 6×His sequence following the start Met to allow metal affinity purification of the recombinant protein. Cells were harvested and the phosphodiesterase protein was purified by metal chelate chromatography on Ni-sepharose 6FF.
The affinity of the compounds of Formula (I) for phophodiesterases (PDE) was measured by a scintillation proximity assay (SPA). PDE Yttrium Silicate SPA beads allow PDE activity to be measured by direct binding of the primary phosphate groups of non-cyclic AMP or GMP to the beads via a complex iron chelation mechanism. The amount of bound tritiated product ([^3H]-AMP) is measured by liquid scintillation counting.
The compounds were dissolved and diluted in 100% DMSO in polystyrene plates to a concentration of 100-fold the final concentration in the assay. Human PDE10A enzyme solution (10 μL) was added to 20 μL, of incubation buffer (50 mM Tris pH 7.8, 8.3 mM MgCl2, 1.7 mM EGTA), 10 μL, substrate solution consisting of a mixture of non-tritiated and tritiated substrate (60 nM cAMP, 0.008 μCi ^3H-cAMP), and 0.4 μL, compound in 100% DMSO in a 384-well plate, and incubated for 60 min at room temperature. After incubation, the reaction was stopped with 20 μL, of stop solution, consisting of PDE SPA beads (17.8 mg beads/mL in 18 mM zinc sulphate). After sedimentation of the beads for 30 min, the radioactivity was measured in a Perkin Elmer Topcount scintillation counter and results were expressed as cpm. To measure the low control, no enzyme was added to the reaction mixture.
Data were calculated as the percentage of inhibition of total activity measured in the absence of test compound (% control).
A general note: Scintillation proximity formats need no separation of bound from free tracer.

Rat recombinant PDE10a (rPDE10a), sequence (Q9QYJ6 whole entry): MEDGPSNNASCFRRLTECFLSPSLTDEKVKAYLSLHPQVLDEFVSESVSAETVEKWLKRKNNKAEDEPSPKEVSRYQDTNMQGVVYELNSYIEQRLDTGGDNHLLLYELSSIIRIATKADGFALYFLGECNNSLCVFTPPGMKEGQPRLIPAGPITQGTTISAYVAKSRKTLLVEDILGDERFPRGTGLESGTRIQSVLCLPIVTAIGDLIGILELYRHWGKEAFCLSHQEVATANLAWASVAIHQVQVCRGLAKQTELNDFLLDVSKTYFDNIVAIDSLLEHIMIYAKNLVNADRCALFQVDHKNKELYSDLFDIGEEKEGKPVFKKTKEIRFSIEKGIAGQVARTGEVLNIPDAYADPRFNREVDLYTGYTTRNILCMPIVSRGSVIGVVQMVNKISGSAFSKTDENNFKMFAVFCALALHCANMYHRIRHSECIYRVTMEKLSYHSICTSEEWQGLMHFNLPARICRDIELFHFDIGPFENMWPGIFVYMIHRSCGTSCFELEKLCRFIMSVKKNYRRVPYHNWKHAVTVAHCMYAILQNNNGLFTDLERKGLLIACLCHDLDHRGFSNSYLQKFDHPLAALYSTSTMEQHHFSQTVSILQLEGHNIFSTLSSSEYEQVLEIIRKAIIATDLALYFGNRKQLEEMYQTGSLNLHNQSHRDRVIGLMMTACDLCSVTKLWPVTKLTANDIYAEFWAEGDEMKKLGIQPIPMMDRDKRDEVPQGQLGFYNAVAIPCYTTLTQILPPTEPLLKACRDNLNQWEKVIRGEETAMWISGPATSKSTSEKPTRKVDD
Human recombinant PDE10A2, sequence (Q9Y233 267-1055): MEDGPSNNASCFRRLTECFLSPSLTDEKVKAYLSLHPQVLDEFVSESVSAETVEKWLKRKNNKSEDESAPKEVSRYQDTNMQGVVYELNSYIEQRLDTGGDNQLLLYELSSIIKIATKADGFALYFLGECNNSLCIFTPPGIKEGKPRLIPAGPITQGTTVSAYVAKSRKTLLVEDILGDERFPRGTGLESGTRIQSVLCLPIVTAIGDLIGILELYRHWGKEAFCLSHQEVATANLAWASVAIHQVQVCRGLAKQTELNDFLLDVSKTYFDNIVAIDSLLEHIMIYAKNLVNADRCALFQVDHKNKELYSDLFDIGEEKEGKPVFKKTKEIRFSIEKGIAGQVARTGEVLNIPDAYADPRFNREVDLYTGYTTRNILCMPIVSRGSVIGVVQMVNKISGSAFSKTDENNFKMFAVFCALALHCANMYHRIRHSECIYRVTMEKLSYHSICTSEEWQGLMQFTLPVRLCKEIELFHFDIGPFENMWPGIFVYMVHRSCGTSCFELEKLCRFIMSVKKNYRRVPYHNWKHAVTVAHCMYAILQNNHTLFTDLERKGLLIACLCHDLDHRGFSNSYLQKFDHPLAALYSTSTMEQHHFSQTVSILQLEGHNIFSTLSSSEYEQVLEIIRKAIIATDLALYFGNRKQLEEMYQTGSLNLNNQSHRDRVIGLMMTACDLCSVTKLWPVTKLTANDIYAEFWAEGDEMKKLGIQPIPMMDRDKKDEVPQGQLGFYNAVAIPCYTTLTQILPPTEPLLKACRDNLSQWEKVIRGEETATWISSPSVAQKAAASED

Consider `OC(c1ccc(-c2cnc(N3CCOCC3)c3nc(/C=C/c4ccc5ccccc5n4)cn23)cc1)(C(F)(F)F)C(F)(F)F` [Cpd 2, (E)-1,1,1,3,3,3-hexafluoro-2-(4-(8-morpholino-2-(2-(quinolin-2-yl)vinyl)imidazo[1,2-a]pyrazin-5-yl)phenyl)propan-2-ol], for which the IC50 turned out to be 20 nM in experiment [1] and 30 nM in experiment [2].
For `O=C(O)c1ccc(-c2cnc(N3CCOCC3)c3nc(/C=C/c4ccc5ccccc5n4)cn23)cc1F` [Cpd 3, (E)-2-Fluoro-4-(8-morpholino-2-(2-(quinolin-2-yl)vinyl)imidazo[1,2-a]pyrazin-5-yl)benzoic acid hydrochloric acid salt], in that order: 9 nM and 5 nM.
For `O=C(O)c1ccc(-c2cnc(N3CCOCC3)c3nc(/C=C/c4ccc5ccccc5n4)cn23)nc1` [Cpd 6, (E)-6-(8-morpholino-2-(2-(quinolin-2-yl)vinyl)imidazo[1,2-a]pyrazin-5-yl)nicotinic acid hydrochloric acid salt], in that order: 14 nM and 12 nM.
For `COc1cccc(/C=C/c2cn3c(-c4ccc(C(=O)O)cc4)cnc(N4CCOCC4)c3n2)n1` [Cpd 7, (E)-4-(2-(2-(6-Methoxypyridin-2-yl)vinyl)-8-morpholinoimidazo[1,2-a]pyrazin-5-yl)benzoic acid], in that order: 16 nM and 6 nM.
As to `O=C(O)Cn1cc(-c2cnc(N3CCOCC3)c3nc(C#Cc4ccc5ccccc5n4)cn23)cn1` [Cpd 9, 2-(4-(8-Morpholino-2-(quinolin-2-ylethynyl)imidazo[1,2-a]pyrazin-5-yl)-1H-pyrazol-1-yl)acetic acid], the IC50 in experiment [1] was 2 nM; in experiment [2], 1 nM.
As for `O=C(O)c1ccc(-c2cnc(N3CCOCC3)c3nc(C#Cc4ccccn4)cn23)cc1` [Cpd 10, 4-(8-Morpholino-2-(pyridin-2-ylethynyl)imidazo[1,2-a]pyrazin-5-yl)benzoic acid], the IC50 is 16 nM in experiment [1] and 12 nM in experiment [2].
Turning to `O=C(O)c1ccc(-c2cnc(N3CCOCC3)c3nc(C#Cc4nc5ccccc5s4)cn23)cc1` [Cpd 11, 4-(2-(Benzo[d]thiazol-2-ylethynyl)-8-morpholinoimidazo[1,2-a]pyrazin-5-yl)benzoic acid], the IC50 in experiment [1] was 9 nM; in experiment [2], 7 nM.
For `CS(=O)(=O)NC(=O)c1ccc(-c2cnc(N3CCOCC3)c3nc(CSc4ccc5ccccc5n4)cn23)cc1` [Cpd 12, N-(Methylsulfonyl)-4-(8-morpholino-2-((quinolin-2-ylthio)methyl)imidazo[1,2-a]pyrazin-5-yl)benzamide], in that order: 4 nM and 2 nM.
For `CC(C)[C@H](Nc1ccc(-c2cnc(N3CCOCC3)c3nc(/C=C/c4ccc5ccccc5n4)cn23)cc1)C(=O)O` [Cpd 15, (S,E)-3-Methyl-2-(4-(8-morpholino-2-(2-(quinolin-2-yl)vinyl)imidazo[1,2-a]pyrazin-5-yl)phenylamino)butanoic acid trifluoroacetic acid salt] the same measures were 51 nM and 30 nM.
In the case of `O=C(O)c1ccc(-c2cnc(N3CCOCC3)c3nc(CCc4ccc5ccccc5n4)cn23)cc1` [Cpd 17, 4-(8-Morpholino-2-(2-(quinolin-2-yl)ethyl)imidazo[1,2-a]pyrazin-5-yl)benzoic acid trifluoroacetic acid salt], the IC50 in experiment [1] and in experiment [2] was 3 nM in each case.
For `COCCOCCOc1ccc(-c2cnc(N3CCOCC3)c3nc(/C=C/c4ccc5ccccc5n4)cn23)cc1` [Cpd 18, (E)-4-(5-(4-(2-(2-Methoxyethoxy)ethoxy)phenyl)-2-(2-(quinolin-2-yl)vinyl)imidazo[1,2-a]pyrazin-8-yl)morpholine], the IC50 in experiment [1] worked out at 102 nM; in experiment [2] it was 83 nM.
For `CN1C(=O)Nc2ccc(-c3cnc(N4CCOCC4)c4nc(/C=C/c5ccc6ccccc6n5)cn34)cc2S1(=O)=O` [Cpd 19, (E)-2-Methyl-7-(8-morpholino-2-(2-(quinolin-2-yl)vinyl)imidazo[1,2-a]pyrazin-5-yl)-2H-benzo[e][1,2,4]thiadiazin-3(4H)-one 1,1-dioxide], in that order: 15 nM and 18 nM.
For `CN1C(=O)N(C)S(=O)(=O)c2cc(-c3cnc(N4CCOCC4)c4nc(/C=C/c5ccc6ccccc6n5)cn34)ccc21` [Cpd 20, (E)-2,4-Dimethyl-7-(8-morpholino-2-(2-(quinolin-2-yl)vinyl)imidazo[1,2-a]pyrazin-5-yl)-2H-benzo[e][1,2,4]thiadiazin-3(4H)-one 1,1-dioxide], in that order: 26 nM and 8 nM.
For `O=c1[nH]cnn1-c1ccc(-c2cnc(N3CCOCC3)c3nc(CCc4ccc5ccccc5n4)cn23)cc1` [Cpd 21, 1-(4-(8-Morpholino-2-(2-(quinolin-2-yl)ethyl)imidazo[1,2-a]pyrazin-5-yl)phenyl)-1H-1,2,4-triazol-5(4H)-one] the same measures were 31 nM and 25 nM.
For `O=C(O)CCNc1ccc(-c2cnc(N3CCOCC3)c3nc(/C=C/c4ccc5ccccc5n4)cn23)cc1` [Cpd 22, (E)-3-(4-(8-Morpholino-2-(2-(quinolin-2-yl)vinyl)imidazo[1,2-a]pyrazin-5-yl)phenylamino)propanoic acid trifluoroacetic acid salt], the IC50 in experiment [1] and in experiment [2] was 9 nM throughout.
On to `O=C(O)CCNc1ccc(-c2cnc(N3CCOCC3)c3nc(CCc4ccc5ccccc5n4)cn23)cc1` [Cpd 23, 3-(4-(8-Morpholino-2-(2-(quinolin-2-yl)ethyl)imidazo[1,2-a]pyrazin-5-yl)phenylamino)propanoic acid trifluoroacetic acid salt], for which the IC50 in experiment [1] is 6 nM; in experiment [2] it was 8 nM.
For `CN1C(=O)NS(=O)(=O)c2cc(-c3cnc(N4CCOCC4)c4nc(/C=C/c5ccc6ccccc6n5)cn34)ccc21` [Cpd 24, (E)-4-Methyl-7-(8-morpholino-2-(2-(quinolin-2-yl)vinyl)imidazo[1,2-a]pyrazin-5-yl)-2H-benzo[e][1,2,4]thiadiazin-3(4H)-one 1,1-dioxide trifluoroacetic acid salt], in that order: 5 nM and 3 nM.
Take `CS(=O)(=O)NC(=O)c1cncc(-c2cnc(N3CCOCC3)c3nc(/C=C/c4ccc5ccccc5n4)cn23)c1` [Cpd 25, (E)-N-(Methylsulfonyl)-5-(8-morpholino-2-(2-(quinolin-2-yl)vinyl)imidazo[1,2-a]pyrazin-5-yl)nicotinamide]: the results for the IC50 in experiment [1] and in experiment [2] were 3 nM and 2 nM, respectively.
Take `O=C1NC(=O)C(c2ccc(-c3cnc(N4CCOCC4)c4nc(CCc5ccc6ccccc6n5)cn34)cc2)O1` (stereo not drawn) [Cpd 26, 5-(4-(8-Morpholino-2-(2-(quinolin-2-yl)ethyl)imidazo[1,2-a]pyrazin-5-yl)phenyl)oxazolidine-2,4-dione trifluoroacetic acid salt]: the IC50 is 8 nM in experiment [1] and 6 nM in experiment [2].
As for `O=C(O)c1cncc(-c2cnc(N3CCOCC3)c3nc(/C=C/c4ccc5ccccc5n4)cn23)c1` [Cpd 27, (E)-5-(8-Morpholino-2-(2-(quinolin-2-yl)vinyl)imidazo[1,2-a]pyrazin-5-yl)nicotinic acid], the half-maximal inhibitory concentration (IC50) in experiment [1] and in experiment [2] was 2 nM in each case.
As to `CS(=O)(=O)NC(=O)c1ccc(-c2cnc(N3CCOCC3)c3nc(CCc4ccc5ccccc5n4)cn23)cc1` [Cpd 61, N-(Methylsulfonyl)-4-(8-morpholino-2-(2-(quinolin-2-yl)ethyl)imidazo[1,2-a]pyrazin-5-yl)benzamide hydrochloric acid salt], the IC50 in experiment [1] is 6 nM.
Still for that read-out and setting: the same measure for `CS(=O)(=O)NC(=O)c1ccc(-c2cnc(N3CCOCC3)c3nc(/C=C/c4ccc5ccccc5n4)cn23)cc1` [Cpd 62, (E)-N-(Methylsulfonyl)-4-(8-morpholino-2-(2-(quinolin-2-yl)vinyl)imidazo[1,2-a]pyrazin-5-yl)benzamide hydrochloric acid salt]: 16 nM.
